# From US12673944B2, “Compounds having inhibitory activity against glucosylceramide synthase or pharmaceutically acceptable salt thereof, processes for preparing the same, and pharmaceutical compositions comprising the same” (YUHAN CORPORATION, priority 2019, dated 2026)
# Key:
# [1] = molecular target: T1, glucosylceramide synthase (GCS) (Homo sapiens, UniProt Q16739); assay: GCS enzyme inhibition assay (A549 cell lysate, NBD C6-ceramide, HPLC fluorescence); assay type: biochemical; conditions: inhibitory activity against GCS, 37° C., 90 minutes
# T1 construct: The obtained supernatant was used; host or cells: A549 cells (lysate supernatant after sonication)
# T1 sequence (Q16739 1-394): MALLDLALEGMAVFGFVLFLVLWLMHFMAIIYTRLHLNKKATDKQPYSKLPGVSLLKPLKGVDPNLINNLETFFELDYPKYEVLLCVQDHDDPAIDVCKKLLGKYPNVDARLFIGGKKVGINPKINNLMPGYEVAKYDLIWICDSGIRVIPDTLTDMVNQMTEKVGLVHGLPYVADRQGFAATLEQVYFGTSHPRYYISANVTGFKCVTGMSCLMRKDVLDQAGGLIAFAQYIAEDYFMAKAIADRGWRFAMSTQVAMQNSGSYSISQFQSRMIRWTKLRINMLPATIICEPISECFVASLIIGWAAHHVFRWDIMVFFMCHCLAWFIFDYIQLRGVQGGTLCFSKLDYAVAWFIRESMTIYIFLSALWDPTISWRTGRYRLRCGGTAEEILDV
# Experimental: Ibiglustat, known as a GCS inhibitor, was used as a control.
# After the cells attached to the culture dish were washed with phosphate buffered saline (PBS), the cells were scraped off with a cell scraper and then centrifuged (4000 rpm, 3 min, 4° C.) to collect the cells in a 50 ml tube. The cell pellets were suspended in a lysis buffer (50 mM HEPES, pH 7.3, containing 1× the protease/phosphatase inhibitor cocktail), lysed by sonication, and then the lysate was centrifuged (13000 rpm, 10 min, 4° C.). The obtained supernatant was used for the quantitative analysis of proteins. The amount of proteins was measured using the BCA protein assay kit, using bovine serum albumin as a standard.
# Enzymatic reactions were initiated by sequentially adding the following reaction materials to a 96 deep-well plate. Thereafter, the enzymatic reactions were performed at 37° C. for 90 minutes.
# The enzymatic reactions were stopped by adding 100 μl of chloroform/methanol (2:1, v/v). After vortexing for 15 seconds, each mixture was centrifuged (4000 rpm, 10 min, 18° C.). The lower layer (50 μl) was transferred to a new 96 deep-well plate and dried with a reduced concentrator.
# Data analysis was performed by the following equations. % Area(Sample)=Area(GlcCer)/[Area(Cer)+Area(GlcCer)]×100 % GCS activity=[Area(Sample)−Area(ibiglustat)]/[Area(DMSO)−Area(ibiglustat)]×100
# [2] = system: GM1 production in Jurkat cells; assay: cells; assay type: cell-based; conditions: Homo sapiens, Jurkat, 72 h
structure (smiles),measurement,setting,value
"Cc1cncc(-c2ccc3c(c2)OCC(C)(C)C3NC(=O)O[C@@H]2CN3CCC2CC3)c1 (stereo partly drawn) [Example 221, (S)-quinuclidin-3-yl (3,3-dimethyl-7-(5-methylpyridin-3-yl)chroman-4-yl)carbamate]",IC50,[1],0.74 nM
same,IC50,[2],2.8 nM
"Cc1ccc(-c2ccc3c(c2)OCC(C)(C)C3NC(=O)O[C@@H]2CN3CCC2CC3)c(Cl)c1 (stereo partly drawn) [Example 223, (S)-quinuclidin-3-yl (7-(2-chloro-4-methylphenyl)-3,3-dimethylchroman-4-yl)carbamate]",IC50,[1],1.58 nM
same,IC50,[2],1.6 nM
"CC1(C)COc2cc(-c3ccc(C4CC4)cc3)ccc2C1NC(=O)O[C@@H]1CN2CCC1CC2 (stereo partly drawn) [Example 161, (S)-quinuclidin-3-yl (7-(4-cyclopropylphenyl)-3,3-dimethylchroman-4-yl)carbamate]",IC50,[1],0.38 nM
same,IC50,[2],0.18 nM
"COc1ccc(-c2ccc3c(c2)OCC(C)(C)C3NC(=O)O[C@@H]2CN3CCC2CC3)cc1 (stereo partly drawn) [Example 206, (S)-quinuclidin-3-yl (7-(4-methoxyphenyl)-3,3-dimethylchroman-4-yl)carbamate]",IC50,[1],0.5 nM
same,IC50,[2],0.01 nM
"N#Cc1ccccc1-c1ccc2c(c1)OCCC2NC(=O)O[C@@H]1CN2CCC1CC2 (stereo partly drawn) [Example 40, (S)-quinuclidin-3-yl (7-(2-cyanophenyl)chroman-4-yl)carbamate]",IC50,[1],3.78 nM
same,IC50,[2],19.7 nM
"CC1(C)CC(NC(=O)O[C@@H]2CN3CCC2CC3)c2ccc(-c3cccc(OC(F)(F)F)c3)cc2O1 (stereo partly drawn) [Example 296, (S)-quinuclidin-3-yl (2,2-dimethyl-7-(3-(trifluoromethoxy)phenyl)chroman-4-yl)carbamate]",IC50,[1],11.4 nM
same,IC50,[2],1.26 nM
"CC(C)c1cccc(-c2ccc3c(c2)OCC(C)(C)C3NC(=O)O[C@@H]2CN3CCC2CC3)c1 (stereo partly drawn) [Example 151, (S)-quinuclidin-3-yl (7-(3-isopropylphenyl)-3,3-dimethylchroman-4-yl)carbamate]",IC50,[1],0.53 nM
same,IC50,[2],0.31 nM
"COc1ccc(-c2ccc3c(c2)OCC(C)(C)C3NC(=O)O[C@@H]2CN3CCC2CC3)c(OC)n1 (stereo partly drawn) [Example 129, (S)-quinuclidin-3-yl (7-(2,6-dimethoxypyridin-3-yl)-3,3-dimethylchroman-4-yl)carbamate]",IC50,[1],1.15 nM
same,IC50,[2],4.56 nM
"CC1(C)COc2cc(-c3ccc(OC(F)F)cc3)ccc2C1NC(=O)O[C@@H]1CN2CCC1CC2 (stereo partly drawn) [Example 218, (S)-quinuclidin-3-yl (7-(4-(difluoromethoxy)phenyl)-3,3-dimethylchroman-4-yl)carbamate]",IC50,[1],0.4 nM
same,IC50,[2],2.69 nM
"CC1(C)COc2cc(-c3cncc4ccccc34)ccc2C1NC(=O)O[C@@H]1CN2CCC1CC2 (stereo partly drawn) [Example 155, (S)-quinuclidin-3-yl (7-(isoquinolin-4-yl)-3,3-dimethylchroman-4-yl)carbamate]",IC50,[1],0.6 nM
same,IC50,[2],0.77 nM
"COc1cccc(-c2ccc3c(c2)OCCC3(C)NC(=O)O[C@@H]2CN3CCC2CC3)c1 (stereo partly drawn) [Example 299, (S)-quinuclidin-3-yl (7-(3-methoxyphenyl)-4-methylchroman-4-yl)carbamate]",IC50,[1],0.6 nM
same,IC50,[2],9.7 nM
"COc1cc(F)ccc1-c1ccc2c(c1)OCC(C)(C)C2NC(=O)O[C@@H]1CN2CCC1CC2 (stereo partly drawn) [Example 120, (S)-quinuclidin-3-yl (7-(4-fluoro-2-methoxyphenyl)-3,3-dimethylchroman-4-yl)carbamate]",IC50,[1],0.71 nM
same,IC50,[2],6.41 nM
"CC1(C)COc2cc(-c3ccc4nsnc4c3)ccc2C1NC(=O)O[C@@H]1CN2CCC1CC2 (stereo partly drawn) [Example 191, (S)-quinuclidin-3-yl (7-(benzo[c][1,2,5]thiadiazol-5-yl)-3,3-dimethylchroman-4-yl)carbamate]",IC50,[1],0.63 nM
same,IC50,[2],0.31 nM
"O=C(NC1CCOc2ccc(-c3ccccc3Cl)cc21)O[C@@H]1CN2CCC1CC2 (stereo partly drawn) [Example 90, (S)-quinuclidin-3-yl (6-(2-chlorophenyl)chroman-4-yl)carbamate]",IC50,[1],4.27 nM
same,IC50,[2],141 nM
"CCc1cccc(-c2cc3c(cc2OC)C(NC(=O)O[C@@H]2CN4CCC2CC4)C(C)(C)CO3)c1 (stereo partly drawn) [Example 352, (S)-quinuclidin-3-yl (7-(3-ethylphenyl)-6-methoxy-3,3-dimethylchroman-4-yl)carbamate]",IC50,[1],0.38 nM
same,IC50,[2],2 nM
"CCc1ccc(/C=C/c2ccc3c(c2)OCC(C)(C)C3NC(=O)O[C@@H]2CN3CCC2CC3)cc1 (stereo partly drawn) [Example 287, (S)-quinuclidin-3-yl (7-((E)-4-ethylstyryl)-3,3-dimethylchroman-4-yl)carbamate]",IC50,[1],0.79 nM
same,IC50,[2],1 nM
"COc1cccc(-c2cc3c(cc2F)C(NC(=O)O[C@@H]2CN4CCC2CC4)C(C)(C)CO3)c1 (stereo partly drawn) [Example 335, (S)-quinuclidin-3-yl (6-fluoro-7-(3-methoxyphenyl)-3,3-dimethylchroman-4-yl)carbamate]",IC50,[1],0.35 nM
same,IC50,[2],2 nM
"Cc1cc(-c2ccc3c(c2)OCC(C)(C)C3NC(=O)O[C@@H]2CN3CCC2CC3)ccc1F (stereo partly drawn) [Example 229, (S)-quinuclidin-3-yl (7-(4-fluoro-3-methylphenyl)-3,3-dimethylchroman-4-yl)carbamate]",IC50,[1],0.71 nM
same,IC50,[2],2.1 nM
"COCCOc1cccc(-c2ccc3c(c2)OCCC3NC(=O)O[C@@H]2CN3CCC2CC3)c1 (stereo partly drawn) [Example 8, (S)-quinuclidin-3-yl (7-(3-(2-methoxyethoxy)phenyl)chroman-4-yl)carbamate]",IC50,[1],0.48 nM
same,IC50,[2],3.59 nM
"Cn1ncc2ccc(-c3ccc4c(c3)OCC(C)(C)C4NC(=O)O[C@@H]3CN4CCC3CC4)cc21 (stereo partly drawn) [Example 196, (S)-quinuclidin-3-yl (3,3-dimethyl-7-(1-methyl-1H-indazol-6-yl)chroman-4-yl)carbamate]",IC50,[1],1.25 nM
same,IC50,[2],6.13 nM
"CC1(C)COc2cc(-c3cccc(F)c3F)ccc2C1NC(=O)O[C@@H]1CN2CCC1CC2 (stereo partly drawn) [Example 239, (S)-quinuclidin-3-yl (7-(2,3-difluorophenyl)-3,3-dimethylchroman-4-yl)carbamate]",IC50,[1],0.47 nM
same,IC50,[2],4.8 nM
"CC1(C)COc2cc(Cc3ccccc3)ccc2C1NC(=O)O[C@@H]1CN2CCC1CC2 (stereo partly drawn) [Example 267, (S)-quinuclidin-3-yl (7-benzyl-3,3-dimethylchroman-4-yl)carbamate]",IC50,[1],1.48 nM
same,IC50,[2],9.1 nM
"CC1(C)COc2cc(-c3cccc4[nH]ncc34)ccc2C1NC(=O)O[C@@H]1CN2CCC1CC2 (stereo partly drawn) [Example 212, (S)-quinuclidin-3-yl (7-(1H-indazol-4-yl)-3,3-dimethylchroman-4-yl)carbamate]",IC50,[1],0.87 nM
same,IC50,[2],2.45 nM
"CC(C)Oc1ccc(-c2ccc3c(c2)OCC(C)(C)C3NC(=O)O[C@@H]2CN3CCC2CC3)cn1 (stereo partly drawn) [Example 258, (S)-quinuclidin-3-yl (7-(6-isopropoxypyridin-3-yl)-3,3-dimethylchroman-4-yl)carbamate]",IC50,[1],0.45 nM
same,IC50,[2],1 nM
"COc1cccc(-c2ccc3c(c2)OCC(C)(C)C3NC(=O)O[C@@H]2CN3CCC2CC3)c1Cl (stereo partly drawn) [Example 176, (S)-quinuclidin-3-yl (7-(2-chloro-3-methoxyphenyl)-3,3-dimethylchroman-4-yl)carbamate]",IC50,[1],0.59 nM
same,IC50,[2],3.2 nM
"COc1ncc(-c2ccc3c(c2)OCCC3NC(=O)O[C@@H]2CN3CCC2CC3)cc1C(F)(F)F (stereo partly drawn) [Example 71, (S)-quinuclidin-3-yl (7-(6-methoxy-5-(trifluoromethyl)pyridin-3-yl)chroman-4-yl)carbamate]",IC50,[1],5.3 nM
same,IC50,[2],38.8 nM
"COc1ccc(Cl)c(-c2ccc3c(c2)OCCC3NC(=O)O[C@@H]2CN3CCC2CC3)c1 (stereo partly drawn) [Example 65, (S)-quinuclidin-3-yl (7-(2-chloro-5-methoxyphenyl)chroman-4-yl)carbamate]",IC50,[1],0.22 nM
same,IC50,[2],1.18 nM
"CCOc1c(C)cc(-c2ccc3c(c2)OCCC3(C)NC(=O)O[C@@H]2CN3CCC2CC3)cc1C (stereo partly drawn) [Example 308, (S)-quinuclidin-3-yl (7-(4-ethoxy-3,5-dimethylphenyl)-4-methylchroman-4-yl)carbamate]",IC50,[1],1.06 nM
same,IC50,[2],4.1 nM
"CC1(C)COc2cc(-c3cccc(C(F)(F)F)c3Cl)ccc2C1NC(=O)O[C@@H]1CN2CCC1CC2 (stereo partly drawn) [Example 138, (S)-quinuclidin-3-yl (7-(2-chloro-3-(trifluoromethyl)phenyl)-3,3-dimethylchroman-4-yl)carbamate]",IC50,[1],0.63 nM
same,IC50,[2],1.57 nM
"CC1(C)COc2cc(-c3ccc(OCC4CC4)nc3)ccc2C1NC(=O)O[C@@H]1CN2CCC1CC2 (stereo partly drawn) [Example 182, (S)-quinuclidin-3-yl (7-(6-(cyclopropylmethoxy)pyridin-3-yl)-3,3-dimethylchroman-4-yl)carbamate]",IC50,[1],0.25 nM
same,IC50,[2],0.79 nM
